Data reported in ChEMBL document CHEMBL1201862, “PubChem BioAssay data set” (2004).
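Following 48 hours of exposure in 96-well plates, responses at five concentrations were used to interpolate endpoints linearly. The concentration for 50% growth inhibition is given as GI50.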 Calls of active or inactive are those of the source. Rule as the data show it: active = GI50 up to about 1.1 µM and inactive = higher.

Legend:
Test in all cases: NCI anticancer screen, dose series, 48 h
786-0 = test system: 786-0
CCRF-CEM = test system: CCRF-CEM
EKVX = test system: EKVX
HCT-116 = test system: HCT-116
HOP-92 = test system: HOP-92
IGROV-1 = test system: IGROV-1
K562 = test system: K562
LOX IMVI = test system: LOX IMVI
NCI-H460 = test system: NCI-H460
OVCAR-3 = test system: OVCAR-3
RPMI-8226 = test system: RPMI-8226
RXF 393 = test system: RXF 393
SK-MEL-28 = test system: SK-MEL-28
SNB-19 = test system: SNB-19
HCC 2998 = test system: HCC 2998
OVCAR-5 = test system: OVCAR-5

| SMILES | GI50 (786-0) | GI50 (CCRF-CEM) | GI50 (EKVX) | GI50 (HCT-116) | GI50 (HOP-92) | GI50 (IGROV-1) | GI50 (K562) | GI50 (LOX IMVI) | GI50 (NCI-H460) | GI50 (OVCAR-3) | GI50 (RPMI-8226) | GI50 (RXF 393) | GI50 (SK-MEL-28) | GI50 (SNB-19) | GI50 (HCC 2998) | GI50 (OVCAR-5) |
| --- | --- | --- | --- | --- | --- | --- | --- | --- | --- | --- | --- | --- | --- | --- | --- | --- |
| COc1ccc(C2C(C(=O)O)=C(COC(C)=O)Oc3cc4c(cc32)OCO4)c(OC)c1 (stereo not given) | > 100 µM (inactive) | > 100 µM (inactive) | > 100 µM (inactive) | > 100 µM (inactive) | 90.6 µM (inactive) | > 100 µM (inactive) | > 100 µM (inactive) | > 100 µM (inactive) | > 100 µM (inactive) | > 100 µM (inactive) | > 100 µM (inactive) | > 100 µM (inactive) | > 100 µM (inactive) | > 100 µM (inactive) | – | – |
| COC(=O)C(C(=O)C(=O)Nc1ccc(C)cc1C)c1csc(-n2nc(-c3ccccc3)cc2-c2ccccc2)n1 (stereo not given) | > 100 µM (inactive) | 83.2 µM (inactive) | 73.3 µM (inactive) | 58.1 µM (inactive) | > 100 µM (inactive) | > 100 µM (inactive) | 93.5 µM (inactive) | 80 µM (inactive) | > 100 µM (inactive) | 86.5 µM (inactive) | – | 92 µM (inactive) | – | > 100 µM (inactive) | > 100 µM (inactive) | 49.9 µM (inactive) |
| CCOc1cc2ccc3c4cc(OC)c(OC)cc4cnc3c2cc1OCC | > 100 µM (inactive) | > 100 µM (inactive) | > 100 µM (inactive) | > 100 µM (inactive) | – | > 100 µM (inactive) | > 100 µM (inactive) | – | > 100 µM (inactive) | > 100 µM (inactive) | > 100 µM (inactive) | – | > 100 µM (inactive) | > 100 µM (inactive) | > 100 µM (inactive) | > 100 µM (inactive) |
| CC(C)N(C(=O)C12C3C4C5C3C1(C(=O)N(C(C)C)C(C)C)C5(C#N)C42)C(C)C (stereo not given) | > 100 µM (inactive) | 22 µM (inactive) | > 100 µM (inactive) | 38.4 µM (inactive) | > 100 µM (inactive) | > 100 µM (inactive) | 33.7 µM (inactive) | 20.8 µM (inactive) | 61 µM (inactive) | > 100 µM (inactive) | 26.7 µM (inactive) | – | > 100 µM (inactive) | > 100 µM (inactive) | > 100 µM (inactive) | > 100 µM (inactive) |
| COC(=O)/C=C/C(=O)C1C(C(=O)OC)C2(C(=O)OC)CCC1(C(=O)OC)N2 (stereo not given) | > 100 µM (inactive) | – | > 100 µM (inactive) | > 100 µM (inactive) | < 0.01 µM (active) | > 100 µM (inactive) | > 100 µM (inactive) | – | – | > 100 µM (inactive) | > 100 µM (inactive) | > 100 µM (inactive) | > 100 µM (inactive) | > 100 µM (inactive) | > 100 µM (inactive) | > 100 µM (inactive) |
| O=C1C(c2ccc([N+](=O)[O-])cc2)=[N+]([O-])c2ccc([N+](=O)[O-])cc21 | > 100 µM (inactive) | 24.2 µM (inactive) | > 100 µM (inactive) | – | – | 26.4 µM (inactive) | 27.7 µM (inactive) | 46.5 µM (inactive) | > 100 µM (inactive) | 17.3 µM (inactive) | 15.5 µM (inactive) | 56.4 µM (inactive) | > 100 µM (inactive) | 98.6 µM (inactive) | – | > 100 µM (inactive) |
| c1ccc(N2N=NC3C4CC(C5c6ccccc6C45)C32)cc1 (stereo not given) | 59 µM (inactive) | 14 µM (inactive) | 37.4 µM (inactive) | 24.7 µM (inactive) | 19.1 µM (inactive) | 56.8 µM (inactive) | 36.1 µM (inactive) | 18.8 µM (inactive) | 40.6 µM (inactive) | 26.6 µM (inactive) | 18.4 µM (inactive) | 15.4 µM (inactive) | – | 69.5 µM (inactive) | – | 44.6 µM (inactive) |
| COC(=O)/C([Se]c1c(C)cc(C)cc1C)=C(\[Se]c1c(C)cc(C)cc1C)C(=O)OC | > 100 µM (inactive) | > 100 µM (inactive) | > 100 µM (inactive) | > 100 µM (inactive) | > 100 µM (inactive) | > 100 µM (inactive) | > 100 µM (inactive) | > 100 µM (inactive) | > 100 µM (inactive) | > 100 µM (inactive) | > 100 µM (inactive) | > 100 µM (inactive) | – | > 100 µM (inactive) | > 100 µM (inactive) | > 100 µM (inactive) |
| [O-][N+]1=C(c2ccccc2)COc2ccccc21 | > 100 µM (inactive) | 85.1 µM (inactive) | – | > 100 µM (inactive) | > 100 µM (inactive) | > 100 µM (inactive) | > 100 µM (inactive) | 96.4 µM (inactive) | > 100 µM (inactive) | > 100 µM (inactive) | 67.5 µM (inactive) | > 100 µM (inactive) | > 100 µM (inactive) | > 100 µM (inactive) | > 100 µM (inactive) | > 100 µM (inactive) |
| COc1cc2c(cc1O)CCN[C@@]21CS[C@H]2c3c(OC(C)=O)c(C)c4c(c3C(COC1=O)N1C2C2NC(Cc3cc(C)c(OC)c(O)c32)[C@@H]1C#N)OCO4 (stereo not given in full) | < 0.01 µM (active) | < 0.01 µM (active) | < 0.01 µM (active) | < 0.01 µM (active) | – | < 0.01 µM (active) | < 0.01 µM (active) | < 0.01 µM (active) | < 0.01 µM (active) | < 0.01 µM (active) | < 0.01 µM (active) | < 0.01 µM (active) | < 0.01 µM (active) | < 0.01 µM (active) | < 0.01 µM (active) | – |
